Results on 64 compounds are retold here after a melting point compilation (Tetko et al.; mined from patent text by program, amines drawn as free bases though some values may be those of a salt).

By melting point is commonly meant the temperature of the solid-liquid transition. The compound `CC(=O)Nc1nc(-c2cc(C)cc(C)c2)c(-c2ccncc2)s1` gave a melting point of 284 to 286 °C.

`Cc1noc(C)c1CN1CC2(COc3cc4c(cc32)OCO4)c2ccccc21` (centres undefined) displayed a melting point of 165 to 167 °C. For `CN1Cc2c(C(=O)OC3CCCC3)ncn2-c2cccc(Cl)c2C1=O` the value was 162 to 163 °C. Consider `Cc1cn2c(N)c(Cl)cc(C(=O)NCC3CCN(CC(=O)C(C)(C)C)CC3)c2n1`, for which the melting point was determined as 198 °C. As for `Clc1ccc(COc2ccccc2C(=NOCc2ccccc2)n2ccnc2)cc1`, the melting point is 94 to 95.5 °C.

`CC(NC1=NS(=O)(=O)c2ccc(Cl)cc2N1)C(C)(C)C` (centres undefined) had a melting point of over 220 °C. `CCOC(=O)C=CC=Cc1ccc(-n2ccnc2)cc1` gave a melting point of 126 to 127 °C.

`CS(=O)(=O)Cc1cccc(CNC(=O)c2nc3scc(COCc4ccc(C(=O)O)cc4)c3c(=O)[nH]2)c1`: the melting point fell in the range of 246 to 248 °C. In turn, `C=Cc1ccc2c(c1)CCN2C(=O)OC(C)(C)C` came in with a melting point of 85.5 to 88.6 °C. Take `COc1ccc(CN2C(=O)N([C@H](C)c3ccccc3)[C@H]3COC(=O)[C@H]32)cc1`: the melting point turned out to be 146 °C. Turning to `CC(C)c1nc(COCc2ccccc2)n(Cc2ccccc2)c1Sc1cccc(Cl)c1`, the melting point was in the range of 120 to 122 °C. For `Cn1c(S(=O)(=O)CCO)nnc1S(=O)(=O)CCO` the value was 176 to 177 °C; for `CC(=O)Cc1c(C)nc2ccccc2c1N`, 130 to 133 °C.

In turn, `CC1(C)CCC(C)(C)c2cc(-c3cc([N+](=O)[O-])ccc3OS(=O)(=O)C(F)(F)F)ccc21` came in with a melting point of 87 to 89 °C. `CCC(OC)(c1ccc(OCc2ccc3ccccc3n2)c(OC)c1)c1nccs1` (centres undefined) had a melting point of 100 to 102 °C.

The compound `CCCCc1nc2c(N)nc3ccccc3c2n1CCOc1ccccc1` gave a melting point of 168 to 170 °C. As to `CN(Cc1cccc2ccccc12)c1ncnc2c(N3CCOCC3)nc(N3CCC(N(C)C)CC3)nc12`, the melting point lay in the range of 146 to 148 °C. Regarding `Cc1sc(-n2cccc2)c(C(=O)N2CCCC2)c1C`, the melting point stood at 100 °C. Compound `NC(=O)N1C(=O)C(=C(OC(=O)COCc2ccccc2)c2cccs2)c2cc(F)c(Cl)cc21` showed a melting point of 150 to 175 °C.

For `O=C(O)c1ccc(-c2cnc3c(O)ncnc3n2)cc1`, the melting point was over 300 °C. Compound `CCN(CC)C(=O)c1ccoc1-c1ccc(Cl)cc1` registered a melting point of 64 to 66 °C. `Nc1nc(Cl)nc(Cl)c1[N+](=O)[O-]`: the melting point lay in the range of 161 to 162 °C. Compound `COc1ccc(-n2c(=O)c(C)nc3cccnc32)cc1` displayed a melting point of 251 to 252 °C. With `O=C(O)CCC(=O)c1ccc(-c2ccc(C(F)(F)F)cc2)cc1`, the melting point fell in the range of 172 to 174 °C.

In the case of `O=C(Nc1ccccc1)c1cc(NC(=S)Nc2cc(Cl)cc(Cl)c2)ccc1F`, the melting point was in the range of 195 to 196 °C.

On to `CCOC(=O)c1c(C)nn(-c2c(Cl)cc(Cl)cc2Cl)c1N`, for which the melting point is 150 °C. As for `O=C(CN1C(=O)C2(COc3cc4c(cc32)OCCO4)c2ccccc21)Nc1ccccc1F` (centres undefined), the melting point was 117 to 119 °C. For `C=CCc1cc2c(cc1O)CC(=O)N2CC`, the melting point lay within 130 to 131 °C.

Compound `COCCc1nc2cnc3cc(Br)cnc3c2n1CC(C)(C)O` registered a melting point of 125 °C. In turn, `Nc1ccc2c(C(F)(F)F)cc(C(F)(F)F)nc2n1` showed a melting point of 198 to 204 °C. For the compound `COc1ccc(Oc2ccc(C(=O)N(C(C)C)C3CCCCC3)cc2)cc1`, the melting point turned out to be 81.7 °C. `FC1(c2cn(-c3ccc(Br)cc3)nn2)CN2CCC1CC2` (centres undefined) came in with a melting point of 127 °C. `CN1C(=O)C2C3Oc4ccccc4OC3=C3C(Oc4cccnc4N3C(=O)Oc3ccccc3)C2C1=O` (centres undefined) registered a melting point of 245 °C. As for `C[C@]1(COc2ccc(N3CCS(=O)CC3)cc2)Cn2cc([N+](=O)[O-])nc2O1`, the melting point is 198 to 200 °C. Turning to `CC(C)(C)c1cc2c(s1)Nc1ccccc1N=C2N1CCN[C@@H](CCc2ccccc2)C1`, the melting point was in the range of 93 to 96 °C. On to `O=C(Cc1ccccc1C1CCCC1)N[C@H]1CCN(CCc2ccccc2)C1`, for which the melting point was 117 to 119 °C.

With `CC(C)NC(=O)Nc1cc(-c2ccnc3c(C(=O)c4cccs4)cnn23)ccc1F`, the melting point was over 200 °C. Turning to `CCCOc1ccc(S(C)(=O)=O)cc1C(=O)Nc1c(CC)n[nH]c1C(N)=O`, the melting point is 209 to 210 °C. Compound `CCOC(=O)C(=O)Nc1cc(Cl)ccc1[N+](=O)[O-]` had a melting point of 103 to 104 °C. In turn, `COC=C(C(=O)OC)c1ccccc1Oc1ncnc(F)c1Cl` had a melting point of 102 °C.

On to `O=C(C=Cc1ccc(Cl)cc1)C(CC=Cc1ccc(Cl)cc1)c1ccccc1` (centres undefined), for which the melting point lay in the range of 115 to 118 °C. The value for `CN[C@@H]1Cc2ccccc2[C@H]1Nc1ccccc1CO` (relative stereo) was 113 to 114 °C. The value for `OCc1cccc2cc(-c3ccccc3)oc12` was 118 °C; that for `FC(F)(F)c1cn2c(c1-c1ccccc1)CCC2` was 154 °C.

Compound `N#Cc1ccc(NC(=O)c2c(O)ccc3ccccc23)c(OC(F)(F)F)c1` came in with a melting point of 169 °C.

For the compound `Nc1ccccc1C(=O)CCC(=O)O`, the melting point was in the range of 103 to 107 °C.

In the case of `CC(C)Cn1c(=O)n(C)c(=O)c2c(N)ncnc21`, the melting point was in the range of 192 to 193 °C. As for `CN1c2ccccc2C(c2ccccc2F)=Nc2cccnc21`, the melting point fell in the range of 140 to 142 °C. Regarding `Oc1ccc2c(c1-c1ccccc1)CCCC=C2c1ccc(OCCCCCSc2ccc(C(F)(F)F)cc2)cc1`, the melting point was found to be 189 °C. For `CCCc1ccc2nc(Cl)c(S(N)(=O)=O)n2n1` the value was 174 to 175 °C. For `O=C(NNS(=O)(=O)c1c(Cl)cccc1Cl)c1ccc2oc3ccccc3c2c1` the value was 202 to 203 °C; for `O=C(O)c1cc2cc(Cl)ccc2nc1NC1(C(=O)O)CCc2ccccc21` (centres undefined), 141 to 144 °C. The value for `NC1=NN(C(=O)NC=NO)C(=O)C1Cc1ccccc1` (centres undefined) was 195 °C; that for `O=[N+]([O-])c1cccc2c1CN(Cc1ccccc1)C2` was 77.5 to 78 °C.

As for `COc1cc(OCc2ccccc2)ccc1/C=C/c1cc(/C=C/c2ccc3cc[nH]c3c2)[nH]n1`, the melting point fell in the range of 86 to 91 °C.

Consider `Cc1nc(-c2nc(=O)c3ccccc3s2)cs1`, for which the melting point lay in the range of 219 to 220 °C.

Take `COc1ccc(S(=O)(=O)N2C(=O)C(=O)c3cc(Cl)ccc32)c(OC)c1`: the melting point came out at 194 °C. Compound `OC1CCNc2nc(Br)ccc21` (centres undefined) yielded a melting point of 130 to 131 °C. `CCC(O)(c1cc(F)cc(Sc2ccc3c(-c4ccoc4)cc(C#N)cc3c2)c1)c1nccs1` (centres undefined) registered a melting point of 120 to 122 °C. For `COc1ccc(N=c2scc(-c3ccc(Cl)c(S(=O)(=O)N(C)C)c3)n2C)cc1` the value was 198 to 199 °C. Consider `O=C(c1c[nH]c2cc(Br)ccc12)C(F)(F)F`, for which the melting point lay in the range of 258 to 260 °C.

For the compound `CCCCCCCCCCC[C@@H]1CC(O)=C(CCCCCC)C(=O)O1`, the melting point is 106 to 108 °C.

The compound `CC(C)(C)ON=C1CCC(NC(=O)N2CCn3c(Cl)c(-c4cccc(F)c4)c(C(N)=O)c3C2)CC1` (centres undefined) registered a melting point of 195 to 198 °C.

The compound `COc1cc(C(=O)c2ccc(C(F)(F)F)cc2)cc(N)c1OC` registered a melting point of 95 to 96 °C.
